From article PMC6268315, “Investigating the Spectrum of Biological Activity of Substituted Quinoline-2-Carboxamides and Their Isosteres ^†” (Molecules, 2012)
pIC50: −log10 of the molar value. ≈ marks a conversion by molar mass, not a printed value. Where two headings read alike, the source gives them in different places.

Legend:
M. kansasii CIT11/06 = test: In vitro antimycobacterial evaluation (alamarBlue); format: cell-based; conditions: Mycobacterium kansasii, read-out: MIC/IC90 M. kansasii
[1] = system: M. avium paratuberculosis ATCC19698; test: In vitro antimycobacterial evaluation (alamarBlue); format: cell-based; conditions: Mycobacterium avium, 264 h, read-out: MIC/IC90 M.avium paratuberculosis
[2] = system: M. avium complex CIT19/06; test: In vitro antimycobacterial evaluation (alamarBlue); format: cell-based; conditions: Mycobacterium avium, 120 h, read-out: MIC/IC90 M. avium complex
[3] = system: photosynthetic electron transport (PET) in spinach chloroplasts; test: Inhibition of photosynthetic electron transport (PET) in spinach chloroplasts; format: biochemical, Spinacia oleracea L.; conditions: photoreduction of DCPIP, pH 7.2
Procedure: Chloroplasts were prepared from spinach (Spinacia oleracea L.) according to Masarovicova and Kralova. The inhibition of photosynthetic electron transport (PET) in spinach chloroplasts was determined spectrophotometrically (Genesys 6, Thermo Scientific, USA), using an artificial electron acceptor 2,6-dichlorophenol-indophenol (DCIPP) according to Kralova et al., and the rate of photosynthetic electron transport was monitored as a photoreduction of DCPIP. The measurements were carried out in phosphate buffer (0.02 mol/L, pH 7.2) containing sucrose (0.4 mol/L), MgCl2 (0.005 mol/L) and NaCl (0.015 mol/L). The chlorophyll content was 30 mg/L in these experiments and the samples were irradiated (~100 W/m^2 with 10 cm distance) with a halogen lamp (250 W) using a 4 cm water filter to prevent warming of the samples (suspension temperature 22 °C). The studied compounds were dissolved in DMSO due to their limited water solubility. […] The inhibitory efficiency of the studied compounds was expressed by IC50 values, i.e., by molar concentration of the compounds causing 50% decrease in the oxygen evolution rate relative to the untreated control.

[4] = system: human monocytic leukemia THP-1 cells; conditions: for lethal effect on THP-1 cells at the highest dose achieved in the medium: 100 µmol/L; for LD50: human, 24 h
[5] = system: M. tuberculosis and other atypical mycobacterial strains; test: In vitro antimycobacterial screening, results in words; format: cell-based, Mycobacterium sp.; conditions: low solubility, precipitation in test media
[6] = system: human monocytic leukemia THP-1 cells; conditions: assessed in this line formerly; cited from earlier work

SMILES | melting point [°C] | MIC (M. kansasii CIT11/06; 120 h, CIT11/06, 5 days) [µM] | MIC ([1]; ATCC19698, 11 days) [µM] | MIC ([2]; CIT19/06, 5 days) [µM] | pIC50 [3] | MIC [2] [µM] | other results
CC(C)NC(=O)c1ccc2ccccc2n1 [Compound 1, N-Isopropylquinoline-2-carboxamide] | 75 to 76 | 1170 (≈ 250 µg/mL) | 1170 (≈ 250 µg/mL) | 583 (≈ 125 µg/mL) |  |  | 
CCCCCCCCCCCCNC(=O)c1ccc2ccccc2n1 [Compound 2, N-Dodecylquinoline-2-carboxamide] |  | 734 (≈ 250 µg/mL) | 734 (≈ 250 µg/mL) |  | 3.24 | 367 (≈ 125 µg/mL) | 
O=C(c1ccc2ccccc2n1)N1CCCC1 [Compound 3, 2-(Pyrrolidin-1-ylcarbonyl)quinoline] |  | 111 (≈ 25.1 µg/mL) | 111 (≈ 25.1 µg/mL) |  | 2.80 | 552 (≈ 125 µg/mL) | lethal effect on THP-1 cells at the highest dose achieved in the medium [4]: did not lead to the 100% lethal effect; LD50 [4]: >100 µmol/L
O=C(NC1CCCC1)c1ccc2ccccc2n1 [Compound 5, N-Cyclopentylquinoline-2-carboxamide] | 63 to 64 |  |  |  | 3.12 | 491 (≈ 118 µg/mL) | MIC (M. kansasii CIT11/06; CIT11/06, 120 h): 491 µM (≈ 118 µg/mL); MIC [1]: 491 µM (≈ 118 µg/mL)
O=C(NC1CCCCC1)c1ccc2ccccc2n1 [Compound 6, N-Cyclohexylquinoline-2-carboxamide] | 98 to 99 | 520 (≈ 132 µg/mL) | 520 (≈ 132 µg/mL) | 520 (≈ 132 µg/mL) | 2.98 |  | 
O=C(NC1CCCCCC1)c1ccc2ccccc2n1 [Compound 7, N-Cycloheptylquinoline-2-carboxamide] |  | 466 (≈ 125 µg/mL) | 223 (≈ 59.8 µg/mL) | 466 (≈ 125 µg/mL) |  |  | LD50 [4]: 62 ± 4.5 µmol/L
O=C(NC1CCCCCCC1)c1ccc2ccccc2n1 [Compound 8, N-Cyclooctylquinoline-2-carboxamide] | 72 to 73 |  |  |  | 3.38 |  | antimycobacterial activity [5]: no activity
O=C(Nc1ccccc1)c1ccc2ccccc2n1 [Compound 9, N-Phenylquinoline-2-carboxamide] |  |  |  |  | 4.07 |  | antimycobacterial activity [5]: non-active
O=C(NCCc1ccccc1)c1ccc2ccccc2n1 [Compound 11, N-(2-Phenylethyl)quinoline-2-carboxamide] |  | 452 (≈ 125 µg/mL) | 905 (≈ 250 µg/mL) | 452 (≈ 125 µg/mL) |  |  | lethal effect on THP-1 cells at the highest dose achieved in the medium [4]: did not lead to the 100% lethal effect; LD50 [4]: >100 µmol/L
Cc1cccc(NC(=O)c2ccc3ccccc3n2)c1 [Compound 14b, N-(3-Methylphenyl)quinoline-2-carboxamide] | 82 to 83 |  | 939 (≈ 246 µg/mL) |  | 4.00 | 469 (≈ 123 µg/mL) | MIC (M. kansasii CIT11/06; CIT11/06, 120 h): 469 µM (≈ 123 µg/mL)
O=C(c1ccc2ccccc2c1)N1CCCC1 [Compound 22, 1-(2-Naphthoyl)pyrrolidine] |  | 111 (≈ 25 µg/mL) | 111 (≈ 25 µg/mL) |  |  | 554 (≈ 125 µg/mL) | lethal effect on THP-1 cells at the highest dose achieved in the medium [4]: did not lead to the 100% lethal effect; LD50 [4]: >100 µmol/L
COc1ccccc1NC(=O)c1ccc2ccccc2c1 [Compound 32a, N-(2-Methoxyphenyl)-2-naphthamide] | 82 | 451 (≈ 125 µg/mL) | 216 (≈ 59.9 µg/mL) | 451 (≈ 125 µg/mL) | 3.12 |  | 
O=C(Nc1ccc([N+](=O)[O-])cc1)c1ccc2ccccc2c1 [Compound 38c, N-(4-Nitrophenyl)-2-naphthamide] | 200 |  |  |  | 3.59 |  | 
NNC(=O)c1ccncc1 [INH, isoniazid, reference compound] |  | < 72.9 |  | < 72.9 |  |  | MIC [1]: > 729 µM
NC(=O)c1cnccn1 [PZA, pyrazinamide, reference compound] |  |  |  |  |  | > 812 | MIC (M. kansasii CIT11/06; CIT11/06, 120 h): > 812 µM; MIC [1]: > 812 µM
CC[C@@]1(O)C(=O)OCc2c1cc1n(c2=O)Cc2cc3ccccc3nc2-1 [camptothecin] |  |  |  |  |  |  | LD50 [6]: 0.16 ± 0.07 µmol/L
